Experimental data taken from US20140128272A1, “Method for Inducing Dormancy of Cancer Tissue-Derived Cell Mass and Method for Evaluating Treating Means with the Use of Cancer-Tissue-Derived Cell Mass” (Osaka Prefectural Hospital Organization, priority 2012, published 2014).

Key:
[1] = test system: cancer tissue-derived cell mass (sample C45, human colon cancer); experiment: in vitro drug sensitivity test with cancer tissue-derived cell mass, normal versus dormant state; format: cell-based; conditions: day 7, 5-FU and oxaliplatin 0.01-10 μg/ml, SN38 0.001-1 ng/ml, FIG. 6; for response of cancer tissue-derived cell mass to drug concentration (relative increase rate of area, no drug = 1): dormant state (dormancy medium); for proliferation of cancer cells in the cancer tissue-derived cell mass (relative increase rate of area, no drug = 1): normal culture conditions (StemPro hESC SFM medium)
Procedure: Using SN38,5-FU, and oxaliplatin known as anti-cancer agents, a drug sensitivity test was performed with C45 sample of Example 2. The test was proceeded by culturing the C45 obtained in example 2, in 1 cc of a dormancy medium or StemPro hESC SFM (Gibco; A10007-01) medium. Further, as to each drug, 5-FU and oxaliplatin were applied at concentrations of 0.01 μg/ml, 0.1 μg/ml, 1 μg/ml, and 10 μg/ml, and SN38 was applied at concentrations of 0.001 ng/ml, 0.01 ng/ml, 0.1 ng/ml, and 1 ng/ml, and comparative evaluation of the culture state was performed on day 7 after each culture. An increase rate of the area of the cancer tissue-derived cell mass was relatively expressed when the increase rate of the area under culture with no drug application was expressed as 1.

[2] = test system: cancer tissue-derived cell mass (sample C45, human colon cancer); experiment: effect of growth factors on proliferation of cancer tissue-derived cell mass under 1% oxygen; format: cell-based; conditions: added to dormancy medium under hypoxic conditions (1% oxygen); heregulin 10 ng/ml, IGF 200 ng/ml, or both; FIG. 4
Procedure: The cancer tissue-derived cell mass obtained in Example 2 was purified as a composition and cultured in a dormancy medium (20 ml): DMEM/F12 with GlutaMAX (Invitrogen) 18.5 ml, 25% BSA (Invitrogen) 1.44 ml, and 2ME Stock […] in a 6 cm non-treated dish (EIKEN CHEMICAL: AG2000) in a personal gas incubator (APM-30D, ASTEC Co., Ltd.) or INVIVO2 400 (RUSKINN) for 15 days at 37° C. under the conditions of an oxygen concentration of 1%.

With `O=c1[nH]cc(F)c(=O)[nH]1` [5-FU] the “response of cancer tissue-derived cell mass to drug concentration (relative increase rate of area, no drug = 1)” value [1] was “did not respond to the concentration of drugs at all or responded little to it” and the “proliferation of cancer cells in the cancer tissue-derived cell mass (relative increase rate of area, no drug = 1)” value [1] was “suppressed”.

In the case of `CCc1c2c(nc3ccc(O)cc13)-c1cc3c(c(=O)n1C2)COC(=O)[C@]3(O)CC` [SN38], the “response of cancer tissue-derived cell mass to drug concentration (relative increase rate of area, no drug = 1)” value [1] is reported as “did not respond to the concentration of drugs at all or responded little to it” and the “proliferation of cancer cells in the cancer tissue-derived cell mass (relative increase rate of area, no drug = 1)” value [1] is reported as “suppressed”.

For `O=C1[O][Pt]2([NH][C@@H]3CCCC[C@H]3[NH]2)[O]C1=O` [oxaliplatin], the “response of cancer tissue-derived cell mass to drug concentration (relative increase rate of area, no drug = 1)” value [1] was “did not respond to the concentration of drugs at all or responded little to it” and the “proliferation of cancer cells in the cancer tissue-derived cell mass (relative increase rate of area, no drug = 1)” value [1] was “suppressed”.

In the case of heregulin, the “growth of the cancer tissue-derived cell mass” value [2] is reported as “grew up rapidly”.

For insulin-like growth factor [IGF], the “growth of the cancer tissue-derived cell mass” value [2] was “grew up rapidly”.
